Data set [1] has as its target T1, HDAC1 (Homo sapiens, UniProt Q13547).
T1 construct: purchased Enzo Life Sciences International, Inc
Put plainly: HDAC1 fluorimetric inhibitory activity assay (Fluor de Lys kit). Conditions: read-out: HDAC1-Inhibitory Ability (IC50). In kind it is biochemical. How it is done: HDAC1-inhibitory activity was determined using the HDAC activity analysis kit by fluorescence measurement (HDAC1 Fluorimetric Drug Discovery Assay Kit A Fluoro de Lys Fluorescent Assay System, Enzo Life Sciences International, Inc., Farmingdale, New York, USA) in accordance with the manufacturer’s instructions. Fluorescence was measured at an excitation wavelength of 360 nm and emission of 460 nm. […] All experiments were carried out in three repetitions.

Data set [2] concerns HeLa cells. Put plainly: MTT cell viability, HeLa. The settings on record: Homo sapiens, 24 h, read-out: IC50 cytotoxic effect, HeLa.
Procedure: (§1) For all experiments using cell lines, cells were cultured in a DMEM culture medium with the addition of 10% fetal bovine serum, 2 mM glutamine and 1% penicillin-streptomycin as antibiotics under standard conditions at 37 °C with 5% CO2.
(§2) Cell viability was measured using MTT analysis, as described earlier [48]. In short, 10,000 HeLa and Hek-293 cells per well were placed in sterile 96-well culture plates and cultured under the standard conditions described above for 24 h to adhere. After the time elapsed, the cells were treated with the studied compounds in a concentration range from 0.1 to 100 µM (0.1–1–3–10–30–100) and incubated for 24 h. The control samples contained an equivalent volume of solvent (DMSO < 1%). At the end of incubation, cell viability was measured by adding an MTT solution (the final concentration was 5 mg/mL, DiaM, Moscow, Russia). After 2 h of incubation at 37 °C, the nutrient medium was carefully aspirated and replaced with 200 µL of dimethyl sulfoxide to dissolve the formazane granules. The optical density of the formazane solution was determined using a multifunctional analyzer Cytation™3 (BioTek Instruments, Inc., Winooski, VT, USA) at λ = 530 nm. All experiments were carried out in three repetitions.
Data set [3] can be described thus: MTT cell viability, Hek-293. The settings on record: human, Hek-293 cells.
Procedure: as §1, §2
The subject of data set [4] is HeLa cell line. Put plainly: Cisplatin cytotoxicity alone and combined with hydroxamic acids, HeLa (MTT). Conditions: 5 µM of compound with cisplatin. In kind it is cell-based, human.
Procedure: Cell viability was measured using MTT analysis, as described earlier [48]. In short, 10,000 HeLa and Hek-293 cells per well were placed in sterile 96-well culture plates and cultured under the standard conditions described above for 24 h to adhere. After the time elapsed, the cells were treated with the studied compounds in a concentration range from 0.1 to 100 µM (0.1–1–3–10–30–100) and incubated for 24 h. The control samples contained an equivalent volume of solvent (DMSO < 1%). At the end of incubation, cell viability was measured by adding an MTT solution (the final concentration was 5 mg/mL, DiaM, Moscow, Russia). After 2 h of incubation at 37 °C, the nutrient medium was carefully aspirated and replaced with 200 µL of dimethyl sulfoxide to dissolve the formazane granules. The optical density of the formazane solution was determined using a multifunctional analyzer Cytation™3 (BioTek Instruments, Inc., Winooski, VT, USA) at λ = 530 nm. […]
Then, the cells were treated with a combination of increasing doses of cytostatic agents and the test compound with a constant ratio of 1:4, and subsequently, a cell death analysis was performed. The CI values were calculated and plotted using CompuSyn.exe (Biosoft, Ferguson, MO, USA) based on the concentration and effect of each agent and their combinations according to instructions of the software. […]
For data set [5], the system named is PA-1 cells. Put plainly: Glycolysis stress test (Seahorse XFe96, ECAR). The settings on record: PA-1, 100 µM. In kind it is cell-based, human. How it is done:
In order to achieve a 90–95% monolayer, approximately 40,000 PA-1 cells per well were placed in XF96 cell-culture plates and a glycolysis stress test was performed 24 h later using an XFe96 extracellular flow analyzer (Seahorse Bioscience, North Billerica, MA, USA) by measuring the rate of extracellular medium acidification (ECAR).
Briefly, after the cells were seeded, the plate was placed in an incubator and cultured for 24 h under the standard conditions described above.
After placing the tablet in the analyzer, a step-by-step measurement of the extracellular acidification rate of the medium was performed in response to the sequential addition of modulators: port A—the studied compounds at a concentration of 100 µM, port B—10 mM of glucose (Seahorse Bioscience, North Billerica, MA, USA), port C—1 µM of oligomycin (Sigma Aldrich, St. Louis, MI, USA) and port D—25 mM 2-deoxy-D-glucose (Sigma Aldrich, St. Louis, MI, USA). To ensure the stability of each measurement, three separate readings were taken.
Glycolysis was measured by estimating the difference between the maximum ECAR after glucose injection and the last measurement before glucose addition. Such a parameter of glycolytic function as glycolytic capacity was determined by analyzing the difference between the maximum ECAR after oligomycin injection and the last measurement before glucose addition. Glycolytic reserve was defined as the difference between glycolytic capacity and glycolysis.

The test system of data set [6] is HeLa/CDDP cells. Put plainly: Cisplatin cytotoxicity alone and combined with hydroxamic acids, cisplatin-resistant HeLa/CDDP (MTT). In kind it is cell-based, human. Conditions: 5 µM hydroxamic acid.
Procedure: Cell viability was measured using MTT analysis, as described earlier [48]. In short, 10,000 HeLa and Hek-293 cells per well were placed in sterile 96-well culture plates and cultured under the standard conditions described above for 24 h to adhere. After the time elapsed, the cells were treated with the studied compounds in a concentration range from 0.1 to 100 µM (0.1–1–3–10–30–100) and incubated for 24 h. The control samples contained an equivalent volume of solvent (DMSO < 1%). At the end of incubation, cell viability was measured by adding an MTT solution (the final concentration was 5 mg/mL, DiaM, Moscow, Russia). […] The optical density of the formazane solution was determined using a multifunctional analyzer Cytation™3 (BioTek Instruments, Inc., Winooski, VT, USA) at λ = 530 nm. All experiments were carried out in three repetitions.
Data set [7] can be described thus: in vitro. The settings on record: human.
Procedure: as §1, §2

The text below walks through data of publication PMC10605847 (Cancers, 2023).

SMILES strings stand for the structures.

T1 sequence (Q13547 whole entry): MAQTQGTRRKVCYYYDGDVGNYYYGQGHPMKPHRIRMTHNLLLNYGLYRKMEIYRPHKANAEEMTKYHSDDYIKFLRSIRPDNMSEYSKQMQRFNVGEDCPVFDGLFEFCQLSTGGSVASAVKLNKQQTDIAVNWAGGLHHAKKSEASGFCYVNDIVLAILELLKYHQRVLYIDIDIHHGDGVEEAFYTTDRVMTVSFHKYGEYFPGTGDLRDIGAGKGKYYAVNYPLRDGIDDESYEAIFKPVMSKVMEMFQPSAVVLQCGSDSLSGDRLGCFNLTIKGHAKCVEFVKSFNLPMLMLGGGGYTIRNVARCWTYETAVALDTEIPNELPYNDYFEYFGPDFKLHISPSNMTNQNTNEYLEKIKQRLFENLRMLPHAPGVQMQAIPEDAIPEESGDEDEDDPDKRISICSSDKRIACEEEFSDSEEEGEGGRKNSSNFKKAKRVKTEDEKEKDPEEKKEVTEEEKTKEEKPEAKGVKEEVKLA

As a reminder, the IC50 is the concentration that gives 50% inhibition. With `CC1(C)C2CC=C(CNC(=O)/C=C/c3ccc(C(=O)NO)cc3)[C@H]1C2` [18b, 4-((E)-3-((((1S)-6,6-Dimethylbicyclo[3.1.1]hept-2-en-2-yl)methyl)amino)-3-oxoprop-1-en-1-yl)-N-hydroxybenzamide], the values for the IC50 in data set [1] and in data set [2] were 7.96 ± 0.28 µM and 43.6 ± 1.02 µM, respectively. For the same molecule, in data set [3], the IC50 at 24 h worked out at 38.9 ± 1.24 µM.
The term melting point denotes the temperature, or range, at which the solid turns liquid. `CC1(C)C2CC=C(CNC(=O)/C=C/c3ccc(C(=O)NO)cc3)[C@@H]1C2` [18a, 4-((E)-3-((((1R)-6,6-Dimethylbicyclo[3.1.1]hept-2-en-2-yl)methyl)amino)-3-oxoprop-1-en-1-yl)-N-hydroxybenzamide]: the melting point came to 96.5 °C. Besides, the IC50 in data set [1] amounted to 6.9 ± 0.03 µM. For the same molecule, the IC50 in data set [2] turned out to be 29.2 ± 1.06 µM. This molecule yielded an IC50 at 24 h in data set [3] of 46.7 ± 2.93 µM.
For orientation: inhibition means the drop in the measured response relative to a control, in per cent. For the molecule `CC1(C)C2CC=C(CCNC(=O)/C=C/c3ccc(C(=O)NO)cc3)[C@@H]1C2` [18c, 4-((E)-3-((2-((1R)-6,6-Dimethylbicyclo[3.1.1]hept-2-en-2-yl)ethyl)amino)-3-oxoprop-1-en-1-yl)-N-hydroxybenzamide], the “decrease in the value of cisplatin IC50” value in data set [4] was found to be 34.50%. Further, the IC50 in data set [1] worked out at 4.45 ± 0.3 µM; in data set [2] it was 33.8 ± 1.19 µM. Also, the inhibition at 100 µM in data set [5] (Homo sapiens, vs. control, read-out: inhibition of glycolytic reserve (ECAR)) turned out to be 86%. The “glycolytic capacity (maximum ECAR after oligomycin injection)” value in data set [5] (p < 0.0001 vs. control) is “significantly lower”. Also, the “reduction of glycolysis (ECAR)” value in data set [5] (vs. control) is on record as 26.6%. The same molecule showed an IC50 at 24 h in data set [3] of 34 ± 3.04 µM. For the same molecule, the “fold decrease in the IC50 of cisplatin” value in data set [6] is recorded as “approximately 2.02 fold”.
With `CC1(C)C2CC=C(CNC(=O)c3ccc(/C=C/C(=O)NO)cc3)[C@H]1C2` [21b, N-(((1S)-6,6-Dimethylbicyclo[3.1.1]hept-2-en-2-yl)methyl)-4-((E)-3-(hydroxyamino)-3-oxoprop-1-en-1-yl)benzamide], the IC50 came to 8.2 ± 0.49 µM in data set [1] and 42.8 ± 1.28 µM in data set [2]. For the same molecule, in data set [7], the IC50 at 24 h stood at 37.2 ± 1.89 µM.
For the molecule `CC(/C=C/C(=O)NO)=C\[C@@H](C)C(=O)c1ccc(N(C)C)cc1` [Trichostatin A, reference compound], in data set [2], the IC50 is 0.38 ± 0.02 µM. The molecule further returned an IC50 at 24 h in data set [3] of 0.22 ± 0.01 µM.
As to `CC1(C)C2CC=C(CCNC(=O)c3ccc(/C=C/C(=O)NO)cc3)[C@@H]1C2` [21c, N-(2-((1R)-6,6-Dimethylbicyclo [3.1.1]hept-2-en-2-yl)ethyl)-4-((E)-3-(hydroxyamino)-3-oxoprop-1-en-1-yl)benzamide], the melting point was 132.5 to 132.6 °C. Further, in data set [1], the IC50 was found to be 5 ± 0.12 µM. Also, the IC50 in data set [2] came to 19.1 ± 0.96 µM. In data set [3], the concentration for half-maximal inhibition (IC50) at 24 h was 33.9 ± 2.59 µM.
For `CC1(C)C2CC=C(CNC(=O)c3ccc(/C=C/C(=O)NO)cc3)[C@@H]1C2` [21a, N-(((1R)-6,6-Dimethylbicyclo[3.1.1]hept-2-en-2-yl)methyl)-4-((E)-3-(hydroxyamino)-3-oxoprop-1-en-1-yl)benzamide], the melting point was 74.6 °C. Further, in data set [1], the IC50 amounted to 7.23 ± 0.46 µM. Also, in data set [2], the IC50 came to 18 ± 0.47 µM. In data set [7], the IC50 at 24 h is 21.2 ± 1.66 µM.
